# Experimental data: publication PMC9138141, “Design, Spectral Characteristics, Photostability, and Possibilities for Practical Application of BODIPY FL-Labeled Thioterpenoid” (Bioengineering, 2022)
# Where two headings read alike, the source gives them in different places.
# Assays:
# [1] = Photobleaching (photodegradation) under UV irradiation at 365 nm; type: physicochemical; conditions: for kobs∙106 of photodegradation / half-life: UV 365 nm; for half-life: read-out: t1/2 of photodegradation (converted)
# Method: The photofading was carried out in quartz cells. The BODIPY solutions in cyclohexane (toluene, 1-octanol, DMSO with c = ~1·10^−5 mol·L^−1) were irradiated with monochromatic light (mercury lamp 250 W with a light filter Carl Zeiss JENA, at λ = 365 nm and room temperature). The area of the light flux was 2.02 cm^2 at a specific power W365 = 4.04 mW·cm^−2 of the UV lamp. The irreversible bleaching of the luminophores at the absorption peak was monitored as a function of time. The EAS of the dye solution was recorded at equal intervals of irradiation (through 5–20 min) on a spectrofluorometer SM2203 in the 300–600 nm wavelength range. The half-life (t1/2) was defined as the time during which the chromophore is destroyed by 50%. The error in determining of t1/2 is 3–5%.
# The observed photooxidation rate constants (kobs) were determined by the equation ln(At/A0) = kobs∙t, where A0 and At are the initial and current optical density at the maximum of the long-wavelength absorption band, respectively, and t is the time of irradiation of the sample with UV light.
# [2] = system: laboratory mice erythrocytes; experiment: Hemolytic activity (erythrotoxicity); type: cell-based; conditions: 20 µM, entire incubation period 5 h, 37 °C, PBS pH 7.4
# Method: A 0.5% (v/v) suspension of laboratory mice erythrocytes in phosphate-buffered saline (PBS, pH 7.4) was used. The hemolytic activity (erythrotoxicity) of the compounds 2 and 6 was assessed by the degree of erythrocyte hemolysis 1, 3, and 5 h after the addition of solutions of the test compounds in DMSO (final concentration 20 μM). The erythrocyte suspension was incubated in a thermostatic shaker Biosan ES-20 with slow stirring at 37 °C temperature for 5 h. After 1, 3, and 5 h, an aliquot was taken, centrifuged, the degree of hemolysis was determined by the hemoglobin content in the supernatant on a Thermo Spectromic Genesys 20 spectrophotometer at λ = 541 nm. The percentage of hemolysis was calculated relative to the total hemolysis of the sample.
# [3] = Luminescent characteristics (fluorescence) in organic solvents; type: physicochemical; conditions: for λmaxfl: λex 470 nm
# Method: (§1) The absorption and emission spectra of dyes solutions (in the range of 10^−6 to 10^−5 M) were recorded on CM 2203 spectrofluorometer (SOLAR) in a 10 mm of absorbing layer thickness at T = 25 ± 0.1 °C. The fluorescence quantum yield (φ), the fluorescence lifetime (τ), the rate constants of radiative processes (krad), and-radiative deactivation (knr) were obtained to use by the standard procedure. The fluorescence quantum yields (φ) of compounds were measured using the standard method (using standard Rhodamine 6G). The φ and τ errors were 10–15 %. The Stokes shift ( ΔλSt ) was calculated by the formula: […]
# [4] = Electronic absorption spectra in organic solvents; type: physicochemical
# Method: as §1
# [5] = system: laboratory mice erythrocytes; experiment: Penetration into RBC (fluorescence of hemolysates and of residual medium); type: cell-based; conditions: 20 μM, 10, 30, 60 min incubation, RBC washed three times with PBS
# Method: To assess the rate of penetration of the BODIPY 2 and its conjugate with a thioterpenoid 6 into RBC, the compounds were added to a suspension of erythrocytes (final concentration 20 μM) and incubated in a thermostatic shaker Biosan ES-20 with slow stirring at 37 °C. After 10, 30, and 60 min, an aliquot was taken and centrifuged to separate erythrocytes from the incubation medium containing the BODIPY 2 or conjugate 6. Erythrocytes were washed three times with PBS, hemolyzed by adding H2O, DMSO was added, and the fluorescence spectra of hemolysates were studied using a Fluorat-02-Panorama spectrofluorometer (Lumex, Saint Petersburg, Russia). The binding of the BODIPY 2 or conjugate 6 to cells was judged from the fluorescence intensity of the corresponding compounds in hemolysates. DMSO was added to the medium (PBS) remaining after cell incubation, and the corresponding fluorescence spectra were also analyzed. Its intensity was used to judge the residual content of the studied compounds in PBS.
# [6] = range over the solvents studied
structure (smiles),measurement,setting,value
COC(=O)CCCC1=C2C(C)=CC(C)=[N+]2[B-](F)(F)n2c(C)cc(C)c21 [Compound 2],kobs∙106 of photodegradation,[1]; 1-octanol,3.1 ± 0.3 s⁻¹
same,kobs∙106 of photodegradation,[1]; DMSO,27.7 ± 0.3 s⁻¹
same,kobs∙106 of photodegradation,[1]; cyclohexane,2.9 ± 0.3 s⁻¹
same,half-life,"[1]; solution in 1-octanol, 1-octanol",82.3 h
same,half-life,"[1]; solution in DMSO, DMSO",8.3 h
same,half-life,"[1]; solution in cyclohexane, cyclohexane",88.6 h
same,half-life,"[1]; solution in toluene, toluene",40.5 h
same,half-life increase / photodestruction rate constant decrease compared to 7,[1]; studied solvents,1.5–2.2 times
same,kobs∙106 of photodegradation,[1]; toluene,5.5 ± 0.3 s⁻¹
same,hemolysis of RBC (erythrotoxicity),[2],did not exceed the spontaneous level
same,"ΔλSt, Stokes shift",[3]; 1-butanol,15 nm
same,"φ, fluorescence quantum yield",[3]; 1-butanol,0.966
same,λmaxfl,[3]; 1-butanol,513 nm
same,"ΔλSt, Stokes shift",[3]; 1-octanol,16 nm
same,"φ, fluorescence quantum yield",[3]; 1-octanol,0.989
same,λmaxfl,[3]; 1-octanol,515 nm
same,"ΔλSt, Stokes shift",[3]; 1-propanol,16 nm
same,"φ, fluorescence quantum yield",[3]; 1-propanol,0.956
same,λmaxfl,[3]; 1-propanol,514 nm
same,"ΔλSt, Stokes shift",[3]; DMF,15 nm
same,"φ, fluorescence quantum yield",[3]; DMF,0.836
same,λmaxfl,[3]; DMF,512 nm
same,"ΔλSt, Stokes shift",[3]; DMSO,15 nm
same,"φ, fluorescence quantum yield",[3]; DMSO,0.769
same,λmaxfl,[3]; DMSO,512 nm
same,"ΔλSt, Stokes shift",[3]; chloroform,15 nm
same,"φ, fluorescence quantum yield",[3]; chloroform,0.908
same,λmaxfl,[3]; chloroform,516 nm
same,"ΔλSt, Stokes shift",[3]; cyclohexane,12 nm
same,"φ, fluorescence quantum yield",[3]; cyclohexane,0.999
same,λmaxfl,[3]; cyclohexane,512 nm
same,fluorescence quenching,[3]; electron-donating media,16–24%
same,"ΔλSt, Stokes shift",[3]; ethanol,13 nm
same,"φ, fluorescence quantum yield",[3]; ethanol,0.910
same,increase of fluorescence quantum yield in the homologous series of alcohols,"[3]; ethanol, 1-propanol, 1-butanol, 1-octanol",~ 8%
same,λmaxfl,[3]; ethanol,510 nm
same,constants of radiative processes (krad),[3]; [6],5.96–8.33 × 10^7 s^−1
same,fluorescence lifetime,[3]; [6],10.2–16.0 ns
same,"ΔλSt, Stokes shift",[3]; toluene,17 nm
same,"φ, fluorescence quantum yield",[3]; toluene,0.991
same,λmaxfl,[3]; toluene,518 nm
same,"emission band maxima λmaxfl, range","[3]; λex = 470 nm, all solvents",510–519 nm
same,"ε, molar absorption coefficient",[4]; 1-butanol,74136 L/mol/cm
same,λmaxabs S0→S1,[4]; 1-butanol,498 nm
same,λmaxabs S0→S2,[4]; 1-butanol,356–363 nm
same,"ε, molar absorption coefficient",[4]; 1-octanol,72443 L/mol/cm
same,λmaxabs S0→S1,[4]; 1-octanol,499 nm
same,λmaxabs S0→S2,[4]; 1-octanol,357–364 nm
same,"ε, molar absorption coefficient",[4]; 1-propanol,74948 L/mol/cm
same,λmaxabs S0→S1,[4]; 1-propanol,498 nm
same,λmaxabs S0→S2,[4]; 1-propanol,359–369 nm
same,"ε, molar absorption coefficient",[4]; DMF,76709 L/mol/cm
same,λmaxabs S0→S1,[4]; DMF,497 nm
same,λmaxabs S0→S2,[4]; DMF,357–363 nm
same,"ε, molar absorption coefficient",[4]; DMSO,66069 L/mol/cm
same,λmaxabs S0→S1,[4]; DMSO,497 nm
same,λmaxabs S0→S2,[4]; DMSO,356–363 nm
same,"ε, molar absorption coefficient",[4]; chloroform,74131 L/mol/cm
same,λmaxabs S0→S1,[4]; chloroform,501 nm
same,λmaxabs S0→S2,[4]; chloroform,358–363 nm
same,"ε, molar absorption coefficient",[4]; cyclohexane,87724 L/mol/cm
same,λmaxabs S0→S1,[4]; cyclohexane,500 nm
same,λmaxabs S0→S2,[4]; cyclohexane,359–364 nm
same,"ε, molar absorption coefficient",[4]; ethanol,72444 L/mol/cm
same,λmaxabs S0→S1,[4]; ethanol,497 nm
same,λmaxabs S0→S2,[4]; ethanol,356–361 nm
same,"ε, molar absorption coefficient",[4]; toluene,79432 L/mol/cm
same,λmaxabs S0→S1,[4]; toluene,501 nm
same,λmaxabs S0→S2,[4]; toluene,360–368 nm
same,penetration into erythrocytes (fluorescence of RBC hemolysates),[5],practically not detected in hemolysates
"CC1=CC(C)=[N+]2C1=Cc1c(C)cc(C)n1[B-]2(F)F [Compound 7, 4,4-Difluoro-1,3,5,7-tetramethyl-4-bora-3a,4a-diaza-s-indacene, reference compound]","ΔλSt, Stokes shift",[3]; 1-butanol,10 nm
same,"φ, fluorescence quantum yield",[3]; 1-butanol,0.932
same,λmaxfl,[3]; 1-butanol,516 nm
same,"ΔλSt, Stokes shift",[3]; 1-octanol,8 nm
same,"φ, fluorescence quantum yield",[3]; 1-octanol,0.941
same,λmaxfl,[3]; 1-octanol,516 nm
same,"ΔλSt, Stokes shift",[3]; 1-propanol,10 nm
same,"φ, fluorescence quantum yield",[3]; 1-propanol,0.920
same,λmaxfl,[3]; 1-propanol,513 nm
same,"ΔλSt, Stokes shift",[3]; DMF,10 nm
same,"φ, fluorescence quantum yield",[3]; DMF,0.990
same,λmaxfl,[3]; DMF,513 nm
same,"ΔλSt, Stokes shift",[3]; DMSO,12 nm
same,"φ, fluorescence quantum yield",[3]; DMSO,0.963
same,λmaxfl,[3]; DMSO,516 nm
same,"Stokes shift, range",[3]; all solvents,6–12 nm
same,"ΔλSt, Stokes shift",[3]; chloroform,8 nm
same,"φ, fluorescence quantum yield",[3]; chloroform,0.903
same,λmaxfl,[3]; chloroform,516 nm
same,"φ, fluorescence quantum yield",[3]; cyclohexane,1.0
same,λmaxfl,[3]; cyclohexane,514 nm
same,"ΔλSt, Stokes shift",[3]; ethanol,7 nm
same,"φ, fluorescence quantum yield",[3]; ethanol,0.879
same,λmaxfl,[3]; ethanol,512 nm
same,"ΔλSt, Stokes shift",[3]; toluene,8 nm
same,"φ, fluorescence quantum yield",[3]; toluene,0.825
same,λmaxfl,[3]; toluene,519 nm
same,"ε, molar absorption coefficient",[4]; 1-butanol,86745 L/mol/cm
same,λmaxabs S0→S1,[4]; 1-butanol,506 nm
same,λmaxabs S0→S2,[4]; 1-butanol,364–375 nm
same,"ε, molar absorption coefficient",[4]; 1-octanol,84427 L/mol/cm
same,λmaxabs S0→S1,[4]; 1-octanol,508 nm
same,λmaxabs S0→S2,[4]; 1-octanol,362–376 nm
same,"ε, molar absorption coefficient",[4]; 1-propanol,87096 L/mol/cm
same,λmaxabs S0→S1,[4]; 1-propanol,503 nm
same,λmaxabs S0→S2,[4]; 1-propanol,362–375 nm
same,"ε, molar absorption coefficient",[4]; DMF,85857 L/mol/cm
same,λmaxabs S0→S1,[4]; DMF,503 nm
same,λmaxabs S0→S2,[4]; DMF,364–375 nm
same,"ε, molar absorption coefficient",[4]; DMSO,82190 L/mol/cm
same,λmaxabs S0→S1,[4]; DMSO,504 nm
same,λmaxabs S0→S2,[4]; DMSO,363–376 nm
same,"ε, molar absorption coefficient",[4]; chloroform,89125 L/mol/cm
same,λmaxabs S0→S1,[4]; chloroform,508 nm
same,λmaxabs S0→S2,[4]; chloroform,363–374 nm
same,"ε, molar absorption coefficient",[4]; cyclohexane,91201 L/mol/cm
same,λmaxabs S0→S1,[4]; cyclohexane,509 nm
same,λmaxabs S0→S2,[4]; cyclohexane,366–376 nm
same,"ε, molar absorption coefficient",[4]; ethanol,81283 L/mol/cm
same,λmaxabs S0→S1,[4]; ethanol,505 nm
same,λmaxabs S0→S2,[4]; ethanol,363–374 nm
same,"ε, molar absorption coefficient",[4]; toluene,82444 L/mol/cm
same,λmaxabs S0→S1,[4]; toluene,511 nm
same,λmaxabs S0→S2,[4]; toluene,365–373 nm
